These results are taken from ChEMBL document CHEMBL1151519, “Xanthene derived potent nonpeptidic inhibitors of recombinant human calpain I” (Bioorg Med Chem Lett, 1996).

For orientation: IC50 means the midpoint of a concentration-inhibition curve.

The target in the first assay is T1, Calpain-1 catalytic subunit (Homo sapiens) (UniProt P07384).
T1 sequence (whole entry): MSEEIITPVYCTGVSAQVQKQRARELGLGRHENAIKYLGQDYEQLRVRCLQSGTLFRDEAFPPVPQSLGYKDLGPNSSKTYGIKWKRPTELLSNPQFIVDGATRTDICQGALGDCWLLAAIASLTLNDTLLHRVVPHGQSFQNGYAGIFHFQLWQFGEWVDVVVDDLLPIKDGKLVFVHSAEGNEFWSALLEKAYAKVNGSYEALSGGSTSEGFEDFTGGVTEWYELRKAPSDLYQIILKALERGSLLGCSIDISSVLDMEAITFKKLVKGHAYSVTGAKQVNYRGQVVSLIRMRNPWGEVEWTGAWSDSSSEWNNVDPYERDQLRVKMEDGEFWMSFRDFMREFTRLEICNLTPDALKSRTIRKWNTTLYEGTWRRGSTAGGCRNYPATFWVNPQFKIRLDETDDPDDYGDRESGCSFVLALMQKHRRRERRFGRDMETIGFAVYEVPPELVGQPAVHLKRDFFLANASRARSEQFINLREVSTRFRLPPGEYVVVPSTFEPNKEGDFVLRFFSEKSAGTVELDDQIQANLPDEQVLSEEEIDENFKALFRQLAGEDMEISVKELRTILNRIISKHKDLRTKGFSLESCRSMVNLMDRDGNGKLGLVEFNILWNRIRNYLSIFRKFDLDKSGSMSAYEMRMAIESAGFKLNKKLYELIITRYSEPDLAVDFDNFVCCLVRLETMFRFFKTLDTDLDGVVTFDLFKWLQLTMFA
Kind of assay: (§1) Inhibitory activity of compound against recombinant human Calpain 1.
For `CC(C)C[C@H](CC(=O)C1c2ccccc2Oc2ccccc21)C(=O)NC(Cc1ccccc1)C(=O)CF` (stereo partly specified), the K obs / 1 is 76000 M⁻¹ s⁻¹.

For another assay, the target named is T2, Calpain-1 catalytic subunit (Homo sapiens, UniProt P07384).
T2 sequence (P07384 whole entry): T1 sequence (whole entry)
Described as §1.
As to `CCNC(=O)C(CC(C)C)NC(=O)[C@@H](CC(=O)C1c2ccccc2Oc2ccccc21)CC(C)C` (stereo partly specified), the IC50 was determined as 130 nM.

Regarding `CC(C)C[C@H](CC(=O)C1c2ccccc2Oc2ccccc21)C(=O)N[C@H](C=O)CC(C)C`, the concentration for half-maximal inhibition (IC50) was determined as 25 nM.

As to `CCNC(=O)C(=O)C(CC)NC(=O)[C@H](CC(C)C)NC(=O)OCc1ccccc1` (stereo partly specified), the half-maximal inhibitory concentration (IC50) is 240 nM.

On to `CC(C)C[C@H](CC(=O)C(c1ccccc1)c1ccccc1)C(=O)N[C@H](C=O)CC(C)C`, for which the half-maximal inhibitory concentration (IC50) turned out to be 50 nM.

Take `CC(C)C[C@H](CC(=O)CCCCc1ccccc1)C(=O)N[C@H](C=O)CC(C)C`: the 50% inhibitory concentration (IC50) was 138 nM.
